Measured values from PubChem BioAssay (NCI).
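Step 1: Grow cells in 96-well plates. Step 2: Expose to compound for 48 hours at 5 concentrations. Step 3: Interpolate endpoints linearly; if unreached, use highest concentration. TGI denotes the concentration required for complete inhibition of growth.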

Tests used:
Experiment in all cases: NCI anticancer screen, dose series, 48 h
SF-268 CNS = test system: SF-268 CNS
CCRF-CEM leukemia = test system: CCRF-CEM leukemia
EKVX NSCLC = test system: EKVX NSCLC
HCC-2998 colon = test system: HCC-2998 colon
HOP-92 NSCLC = test system: HOP-92 NSCLC
ACHN renal = test system: ACHN renal
SR leukemia = test system: SR leukemia
UACC-257 melanoma = test system: UACC-257 melanoma
SF-295 CNS = test system: SF-295 CNS
HCT-15 colon = test system: HCT-15 colon
HOP-62 NSCLC = test system: HOP-62 NSCLC
M14 melanoma = test system: M14 melanoma
LOX IMVI melanoma = test system: LOX IMVI melanoma
UACC-62 melanoma = test system: UACC-62 melanoma
SW-620 colon = test system: SW-620 colon
HL-60(TB) leukemia = test system: HL-60(TB) leukemia
NCI-H23 lung = test system: NCI-H23 lung
HT29 colon = test system: HT29 colon
NCI-H460 lung = test system: NCI-H460 lung
CAKI-1 renal = test system: CAKI-1 renal
HS 578T breast = test system: HS 578T breast
K-562 leukemia = test system: K-562 leukemia
T-47D breast = test system: T-47D breast
SK-MEL-28 melanoma = test system: SK-MEL-28 melanoma
MALME-3M melanoma = test system: MALME-3M melanoma
OVCAR-5 ovarian = test system: OVCAR-5 ovarian
NCI/ADR-RES ovarian = test system: NCI/ADR-RES ovarian
SK-MEL-5 melanoma = test system: SK-MEL-5 melanoma
COLO 205 colon = test system: COLO 205 colon
UO-31 renal = test system: UO-31 renal
OVCAR-8 ovarian = test system: OVCAR-8 ovarian
MCF7 breast = test system: MCF7 breast
786-0 renal = test system: 786-0 renal
A549 NSCLC = test system: A549 NSCLC
PC-3 prostate = test system: PC-3 prostate
OVCAR-3 ovarian = test system: OVCAR-3 ovarian
RXF 393 renal = test system: RXF 393 renal
TK-10 renal = test system: TK-10 renal
DU-145 prostate = test system: DU-145 prostate
NCI-H522 lung = test system: NCI-H522 lung
BT-549 breast = test system: BT-549 breast
SF-539 CNS = test system: SF-539 CNS
RPMI-8226 leukemia = test system: RPMI-8226 leukemia
MDA-MB-435 = test system: MDA-MB-435
KM12 colon = test system: KM12 colon
SK-OV-3 ovarian = test system: SK-OV-3 ovarian
IGROV1 ovarian = test system: IGROV1 ovarian
U251 CNS = test system: U251 CNS
MDA-MB-231 breast = test system: MDA-MB-231 breast
SN12C renal = test system: SN12C renal
HCT-116 colon = test system: HCT-116 colon
SNB-19 CNS = test system: SNB-19 CNS
MOLT-4 leukemia = test system: MOLT-4 leukemia
OVCAR-4 ovarian = test system: OVCAR-4 ovarian
SK-MEL-2 melanoma = test system: SK-MEL-2 melanoma
A498 renal = test system: A498 renal
NCI-H226 lung = test system: NCI-H226 lung
SNB-75 CNS = test system: SNB-75 CNS

Measured: TGI

CSCCCNC(=O)c1csc(-c2csc(CCN)n2)n1
> 100 µM: SF-268 CNS | CCRF-CEM leukemia | EKVX NSCLC | HCC-2998 colon | HOP-92 NSCLC | ACHN renal | SR leukemia | UACC-257 melanoma | SF-295 CNS | HCT-15 colon | HOP-62 NSCLC | M14 melanoma | LOX IMVI melanoma | UACC-62 melanoma | SW-620 colon | HL-60(TB) leukemia | NCI-H23 lung | HT29 colon | NCI-H460 lung | CAKI-1 renal | HS 578T breast | K-562 leukemia | T-47D breast | SK-MEL-28 melanoma | MALME-3M melanoma | OVCAR-5 ovarian | NCI/ADR-RES ovarian | SK-MEL-5 melanoma | COLO 205 colon | UO-31 renal | OVCAR-8 ovarian | MCF7 breast | 786-0 renal | A549 NSCLC | PC-3 prostate | OVCAR-3 ovarian | RXF 393 renal | TK-10 renal | DU-145 prostate | NCI-H522 lung | BT-549 breast | SF-539 CNS | RPMI-8226 leukemia | MDA-MB-435 | KM12 colon | SK-OV-3 ovarian | IGROV1 ovarian | U251 CNS | MDA-MB-231 breast | SN12C renal | HCT-116 colon | SNB-19 CNS | MOLT-4 leukemia | OVCAR-4 ovarian

NCCCCN(CCCN)Cc1ccccc1
> 100 µM: SF-268 CNS | CCRF-CEM leukemia | EKVX NSCLC | HCC-2998 colon | HOP-92 NSCLC | ACHN renal | UACC-257 melanoma | SK-MEL-2 melanoma | SF-295 CNS | HCT-15 colon | HOP-62 NSCLC | M14 melanoma | UACC-62 melanoma | SW-620 colon | HL-60(TB) leukemia | NCI-H23 lung | HT29 colon | A498 renal | NCI-H460 lung | CAKI-1 renal | NCI-H226 lung | SNB-75 CNS | HS 578T breast | K-562 leukemia | T-47D breast | SK-MEL-28 melanoma | OVCAR-5 ovarian | NCI/ADR-RES ovarian | SK-MEL-5 melanoma | COLO 205 colon | UO-31 renal | OVCAR-8 ovarian | MCF7 breast | 786-0 renal | A549 NSCLC | PC-3 prostate | OVCAR-3 ovarian | RXF 393 renal | TK-10 renal | DU-145 prostate | NCI-H522 lung | BT-549 breast | SF-539 CNS | RPMI-8226 leukemia | MDA-MB-435 | KM12 colon | SK-OV-3 ovarian | IGROV1 ovarian | U251 CNS | MDA-MB-231 breast | SN12C renal | HCT-116 colon | SNB-19 CNS | MOLT-4 leukemia | OVCAR-4 ovarian
